Assay results as given in article PMC5224920, “Assessing the mechanism and therapeutic potential of modulators of the human Mediator complex-associated protein kinases” (eLife, 2016).
Like-named read-outs stand apart in the source and are kept apart here.

What was measured:
p-STAT1^SER727 = assay: Inhibition of STAT1 SER727 phosphorylation in cells (target-engagement biomarker)
LS180 [1] = assay: 96 hour proliferation GI50, LS180; conditions: Homo sapiens, LS180, 96 h, read-out: 96 hour GI50
DLD1 [2] = assay: 96 hour proliferation GI50, DLD1; conditions: Homo sapiens, DLD-1, 96 h, read-out: 96 hour GI50
COLO205 [3] = assay: 96 hour proliferation GI50, COLO205; conditions: Homo sapiens, COLO 205, 96 h, read-out: 96 hour GI50
Beagle dogs = assay: 14-day oral tolerability study in dogs; conditions: for Target organs: Dog; for Fold of efficacious dose; 10 mg/kg / Fold of efficacious dose; 30 mg/kg: CMPD 4, dog 20 mg/kg
RKO [4] = assay: 24 hour reporter assay, RKO negative control (EEF1A1 promoter-reporter); format: cell-based; conditions: Homo sapiens, RKO, read-out: 24 hour TCF/LEF Reporter assay IC50
SW620 = assay: 96 hour proliferation GI50, SW620; conditions: Homo sapiens, SW-620, 96 h, read-out: 96 hour GI50
LS174T [5] = assay: 24 hour TCF/LEF reporter assay, LS174T; format: cell-based; conditions: Homo sapiens, read-out: 24 hour TCF/LEF Reporter assay IC50
COLO205 [6] = assay: 24 hour TCF/LEF reporter assay, COLO205; format: cell-based; conditions: Homo sapiens, COLO 205, 24 h, read-out: 24 hour TCF/LEF Reporter assay IC50
protein kinases = assay: Kinase selectivity panel at 1 µM; format: biochemical; conditions: 1µM test compound
Rat PK = format: in vivo
SW948 = assay: 96 hour proliferation GI50, SW948; conditions: Homo sapiens, SW948, 96 h, read-out: 96 hour GI50
LS180 [7] = assay: 24 hour TCF/LEF reporter assay, LS180; format: cell-based; conditions: Homo sapiens, LS180, 24 h, read-out: 24 hour TCF/LEF Reporter assay IC50
plasma cytokines (IL-12) = assay: Rat plasma Th1/Th2 cytokine measurement; format: in vivo; conditions: Wistar rats, 5 – 20 mg/kg po qd; p<0.005
Experimental: Lithium-heparin-plasma (120 µL) was taken from each non-fasted animal on day 1 pre-dose and on days 3 and 14 pre-dose and also 2 hr after the last treatment. The rat Th1/Th2 multiPlex bead immunoassay panel (Invitrogen) was used to generate calibration curves and to measure cytokine (IL-1α, IL-1β, IL-2, IL-4, IL-6, IL-10, IL-12, IFNγ, gmCSF and TNFα) levels (Luminex, Austin, Texas, USA).

Dog PK = format: in vivo; conditions: for Dog PK Cl / Dog PK Vd: 0.2mg/kg i.v.
[8] = test system: LS1034 colorectal cancer xenografts; assay: LS1034 colorectal cancer xenograft, tumor growth inhibition; format: in vivo, human
MV-4-11 AML xenograft = assay: MV-4-11 AML subcutaneous xenograft; format: in vivo, human
LS174T [9] = assay: 96 hour proliferation GI50, LS174T; conditions: Homo sapiens, read-out: 96 hour GI50
LS174T [10] = assay: LS174T basal WNT-pathway luciferase reporter
LS513 = assay: 96 hour proliferation GI50, LS513; conditions: Homo sapiens, LS-513, 96 h, read-out: 96 hour GI50
DLD1 [11] = assay: 24 hour TCF/LEF reporter assay, DLD1; format: cell-based; conditions: Homo sapiens, DLD-1, 24 h, read-out: 24 hour TCF/LEF Reporter assay IC50
HT29 [12] = assay: 96 hour proliferation GI50, HT29; conditions: Homo sapiens, HT-29, 96 h, read-out: 96 hour GI50
Mouse PK = format: in vivo
[13] = test system: p-STAT1^SER727 in SW620 tumor xenografts; assay: p-STAT1 SER727 level in SW620 xenografts (pharmacodynamics); format: in vivo, human
Experimental: As with 3, 10 mg/kg of 4 inhibited the pathway biomarker for 6 hr, but was not sufficient for antitumor activity in SW620 xenografts (Figure 2A and Figure 2—source data 1).

SW837 [14] = assay: 24 hour TCF/LEF reporter assay, SW837; format: cell-based; conditions: Homo sapiens, SW837, 24 h, read-out: 24 hour TCF/LEF Reporter assay IC50
[15] = test system: SW620 human colorectal cancer xenografts; assay: SW620 human colorectal cancer xenograft, tumor growth inhibition; format: in vivo
Wistar rats = assay: 14-day oral tolerability study in rats; format: in vivo; conditions: for Target organs: Rat
Excerpt: Animals were culled 24 hr after the last dose. Additional satellite animals for toxicokinetic evaluations were included.

SW837 [16] = assay: 96 hour proliferation GI50, SW837; conditions: Homo sapiens, SW837, 96 h, read-out: 96 hour GI50
RKO [17] = assay: 96 hour proliferation GI50, RKO; conditions: Homo sapiens, read-out: 96 hour GI50
HT29 [18] = assay: 14 d colony growth assay, HT29; format: cell-based, human; conditions: 350 nM, mean (range), n = 2
[19] = low dose 5 mg/kg daily oral for 14 days

## Cn1ncc2cc(-c3cnc(N)c(Cl)c3N3CCC4(CCNC4=O)CC3)ccc21 [CMPD 3]
p-STAT1^SER727; read-out: p-STAT1^SER727 IC50, mean ± s.d. or *± range
  IC50: 22 ± 12 nM
p-STAT1^SER727; read-out: p-STAT1^SER727 IC50; mean ± s.d. or *± range
  IC50: 25.5 ± 12 nM
LS180 [1]
  GI50: 6670 nM
DLD1 [2]
  GI50: > 30000 nM
COLO205 [3]
  GI50: > 30000 nM
Beagle dogs; [19]
  Target organs: Bone marrow, gastrointestinal mucosa, heart, lymphatic system
RKO [4]
  IC50: > 30000 nM
SW620
  GI50: 1860 nM
LS174T [5]
  IC50: 39 nM
COLO205 [6]
  IC50: 15 nM
Protein kinases
  Off-target activities in protein kinase panel: No off-target activities were detected
Rat PK; 0.2mg/kg i.v.
  Rat PK Cl: 24.8 mL/min/kg
  Rat PK Vd: 1.99 L/kg
SW948
  GI50: > 30000 nM
LS180 [7]
  IC50: 28 nM
Plasma cytokines (IL-12)
  Plasma IL-12 level: increased significantly
Dog PK
  Dog PK Cl: 17.8 mL/min/kg
  Dog PK Vd: 1.4 L/kg
[8]; 30 x 1 (5/7 d) mg/kg x doses/day, day 21, P <0.001
  TGI: 55%
MV-4-11 AML xenograft; 10 mg/kg po qd monotherapy
  TGI: 100%
LS174T [9]
  GI50: > 30000 nM
LS174T [10]; Homo sapiens, LS174T, read-out: LS174T IC50
  IC50: 33.3 ± 12.8 nM
LS513
  GI50: > 30000 nM
DLD1 [11]
  IC50: 173 nM
HT29 [12]
  GI50: > 30000 nM
Mouse PK; 0.2mg/kg i.v.
  Mouse PK Cl: 10.2 mL/min/kg
  Mouse PK Vd: 0.63 L/kg
[13]; SW620 tumor xenografts, single treatment with 30 mg/kg
  Time biomarker (p-STAT1^SER727) inhibition maintained: approximately 10 hr
SW837 [14]
  IC50: 14 nM
[15]; 5 x 1 mg/kg x doses/day, day 14, nr = no response, P ns
  TGI: nr
[15]; 10 x 1 mg/kg x doses/day, day 14, P ns
  TGI: 33%
[15]; 30 x 1 mg/kg x doses/day, day 14, 8 mice, P <0.05
  TGI: 48%
[15]; 30 x 1b mg/kg x doses/day, day 14, 9 mice, P <0.01
  TGI: 44%
[15]; 30 x 2 (5/7 d) and x 1 (2/7 d)e mg/kg x doses/day, day 14, P <0.01
  TGI: 44%
Wistar rats; high dose 20 mg/kg daily oral for 14 days (CMPD 3)
  Target organs: Bone, bone marrow, heart, liver, lung, lymph nodes, pancreas, reproductive tract (m and f), spleen, thymus.
Wistar rats; [19]
  Target organs: Bone, bone, marrow, heart, liver, lung, lymph nodes, pancreas, reproductive tract (m), spleen, thymus.
Wistar rats; mid dose 10 mg/kg daily oral for 14 days (CMPD 3)
  Target organs: Bone, bone marrow, heart, liver, lung, lymph nodes, pancreas, reproductive tract (m and f), spleen, thymus.
SW837 [16]
  GI50: 3110 nM
RKO [17]
  GI50: > 30000 nM

## Cc1n[nH]c2ncc(C(=O)N3CCC[C@H]3c3ccc(Cl)cc3)cc12 [CMPD 4]
p-STAT1^SER727; read-out: p-STAT1^SER727 IC50
  IC50: 7.7 ± 2.2 nM
LS180 [1]
  GI50: > 30000 nM
DLD1 [2]
  GI50: > 30000 nM
COLO205 [3]
  GI50: > 30000 nM
Beagle dogs; female
  Fold of efficacious dose; 10 mg/kg: ~46
  Fold of efficacious dose; 30 mg/kg: ~15
Beagle dogs; male
  Fold of efficacious dose; 10 mg/kg: ~22
  Fold of efficacious dose; 30 mg/kg: ~7
Beagle dogs; low dose 20 mg/kg daily oral for 14 days
  Target organs: Bone marrow, heart, Intestines, lymphatic system
RKO [4]
  IC50: > 30000 nM
SW620
  GI50: > 30000 nM
LS174T [5]
  IC50: 31 nM
COLO205 [6]
  IC50: 9 nM
Rat PK; 0.2mg/kg i.v.
  Rat PK Vd: 1.62 L/kg
Rat PK; 0.2mg/kg i.v. or 0.5mg/kg p.o.
  Rat PK F: 66%
Rat PK; male, Wistar, rat, in vivo, iv, 0.2mg/kg i.v., read-out: Rat PK Cl (converted)
  clearance: 25 mL/min/kg
SW948
  GI50: > 30000 nM
LS180 [7]
  IC50: 31 nM
Dog PK
  Dog PK Cl: 22.5 mL/min/kg
  Dog PK Vd: 1.47 L/kg
Dog PK; 0.2mg/kg i.v. or 0.5mg/kg p.o.
  Dog PK F: 39%
HT29 [18]
  14 d colony growth (relative to control): 0.43 (0.01)
[8]; 50 x 2 mg/kg x doses/day, day 22, P ns
  TGI: 52%
[8]; 100 x 1 mg/kg x doses/day, day 22, P ns
  TGI: 30%
MV-4-11 AML xenograft; 2 hr post-treatment
  Target inhibition by p-STAT1^SER727: near maximal target inhibition
LS174T [9]
  GI50: > 30000 nM
LS174T [10]; Homo sapiens, LS174T, read-out: LS174T IC50, basal WNT-pathway luciferase reporter, mean ± s.d. or *± range
  IC50: 29.5 ± 9.5 nM
LS174T [10]; read-out: LS174T IC50, basal WNT-pathway luciferase reporter, mean ± s.d. or *± range
  IC50: 36.2 ± 9.5 nM
LS513
  GI50: > 30000 nM
DLD1 [11]
  IC50: 97 nM
HT29 [12]
  GI50: > 30000 nM
Mouse PK; 0.2mg/kg i.v.
  Mouse PK Cl: 22.8 mL/min/kg
Mouse PK; 0.2mg/kg i.v. or 0.5mg/kg p.o.
  Mouse PK F: 25%
Mouse PK; female, NMRI, mouse, in vivo, iv, 0.2mg/kg i.v.
  Vd: 0.59 L/kg
[13]; SW620 xenografts, 10 mg/kg
  Time pathway biomarker (p-STAT1^SER727) inhibited: 6 h
SW837 [14]
  IC50: 8 nM
[15]; 5 x 2 mg/kg x doses/day, day 13, nr = no response, P ns
  TGI: nr
[15]; 10 x 1 mg/kg x doses/day, day 13, nr = no response, P ns
  TGI: nr
[15]; 50 x 2b mg/kg x doses/day, day 16, P ns
  TGI: 51%
[15]; 100 x 1 mg/kg x doses/day, day 16, P ns
  TGI: 43%
Wistar rats; CMPD 4, rat 10 mg/kg, female
  Fold of efficacious dose; 10 mg/kg: ~2.4
  Fold of efficacious dose; 30 mg/kg: ~0.8
Wistar rats; CMPD 4, rat 10 mg/kg, male
  Fold of efficacious dose; 10 mg/kg: ~0.9
  Fold of efficacious dose; 30 mg/kg: ~0.3
Wistar rats; CMPD 4, rat 20 mg/kg, female
  Fold of efficacious dose; 10 mg/kg: ~5.7
  Fold of efficacious dose; 30 mg/kg: ~1.9
Wistar rats; CMPD 4, rat 20 mg/kg, male
  Fold of efficacious dose; 10 mg/kg: ~3.9
  Fold of efficacious dose; 30 mg/kg: ~1.3
Wistar rats; CMPD 4, rat 60 mg/kg, female
  Fold of efficacious dose; 10 mg/kg: ~23.1
  Fold of efficacious dose; 30 mg/kg: ~7.7
Wistar rats; CMPD 4, rat 60 mg/kg, male
  Fold of efficacious dose; 10 mg/kg: ~10.8
  Fold of efficacious dose; 30 mg/kg: ~3.6
Wistar rats; high dose 60 mg/kg daily oral for 14 days
  Target organs: Bone, bone marrow, brain, heart, intestines, liver, lung, lymph nodes, mammary gland, pancreas, reproductive tract (m and f), skin, spleen, stomach, thymus
Wistar rats; low dose 10 mg/kg daily oral for 14 days (CMPD 4)
  Target organs: Bone, bone marrow, intestines, liver, lung, lymph nodes, mammary gland, pancreas, reproductive tract (m and f), skin, spleen, stomach, thymus.
Wistar rats; mid dose 20 mg/kg daily oral for 14 days (CMPD 4)
  Target organs: Bone, bone marrow, heart, intestines, liver, lung, lymph nodes, mammary gland, pancreas, reproductive tract (m and f), skin, spleen, stomach, thymus
SW837 [16]
  GI50: > 30000 nM
RKO [17]
  GI50: > 30000 nM
